Experimental data taken from publication PMC6599250, “Functional diversity of inhibitors tackling the differentiation blockage of MLL-rearranged leukemia” (Journal of Hematology & Oncology, 2019).
Read-outs that look alike come from different tables or passages of the source.

How the values were obtained:
Assay type in all cases: cell-based
[1] = test system: selected MLL-fused models; test: Cell proliferation, AML/ALL panel; conditions: specifically in selected MLL-fused models (Fig. 2a); read-out: proliferation IC50 (significant effects)
Experimental: (§1) Cells were seeded in the optimal growth medium at 4000–5000 cells/well in a 96 MTP and cultured 18–24 h before inhibitor treatment.

MOLM-14 (MLL-AF9) cells = test: Cell proliferation (alamarBlue) MOLM-14; conditions: Homo sapiens, MOLM-14, MOLM-14 (MLL-AF9), read-out: IC50 proliferation
Experimental: as §1

[2] = test system: MLL-fused cell lines (MV4-11, MOLM-13); test: CD11b protein expression by flow cytometry, MLL-fused lines; conditions: 4 and 7 days of treatment
Experimental: (§2) Four thousand cells per well were seeded 24 h before they were treated with the indicated inhibitor in a 96 MTP. After 4 or 7 days of treatment, cells were washed with PBS and stained with CD11b - APC (BioLegend, San Diego, California, USA) and DAPI (Thermo Fisher Scientific, Waltham, Massachusetts, USA) or AnnexinV – FITC (BioLegend, San Diego, California, USA) and PI solution (Sigma-Aldrich St. Louis, Missouri, USA) using the FACS Canto II (BD Biosciences, Heidelberg, Germany) and data was analyzed with FACSDiva software.

HL-60 (MLL-WT) cells = test: Cell proliferation (alamarBlue) HL-60; conditions: for IC50: Homo sapiens, HL-60 (MLL-WT), read-out: IC50 proliferation
Experimental: as §1

[3] = test system: OCI-AML-2 (MLL-AF9) cells; test: Cell proliferation (alamarBlue) OCI-AML-2; conditions: Homo sapiens, OCI-AML2, OCI-AML-2 (MLL-AF9), read-out: IC50 proliferation
Experimental: as §1

Jurkat (MLL-WT) cells = test: Cell proliferation (alamarBlue) Jurkat; conditions: Homo sapiens, Jurkat (MLL-WT)
Experimental: as §1

ML-2 (MLL-AF6) cells = test: Cell proliferation (alamarBlue) ML-2; conditions: ML-2 (MLL-AF6), read-out: IC50 proliferation
Experimental: as §1

KOPN-8 (MLL-ENL) cells = test: Cell proliferation (alamarBlue) KOPN-8; conditions: Homo sapiens, KOPN-8, KOPN-8 (MLL-ENL), read-out: IC50 proliferation
Experimental: as §1

EOL-1 (MLL-TD) cells = test: Cell proliferation (alamarBlue) EOL-1; conditions: Homo sapiens, EOL1, EOL-1 (MLL-TD), read-out: IC50 proliferation
Experimental: as §1

[4] = test system: MV4-11, MOLM-13 and HL-60 cells; test: Cell cycle analysis (PI, flow cytometry); conditions: 4 days of treatment (Figure S2)
Experimental: Cells were washed with PBS and fixed overnight at − 20 °C with 70% ethanol. Fixed cells were stained with PI solution (Sigma-Aldrich St. Louis, MO, USA) solution containing RNase A (Qiagen, Hilden, Germany). Fluorescence was measured with FACS Canto II (BD Biosciences, Heidelberg, Germany) flow cytometer and data was analyzed with FACSDiva software.

NOMO-1 (MLL-AF9) cells = test: Cell proliferation (alamarBlue) NOMO-1; conditions: Homo sapiens, NOMO-1, NOMO-1 (MLL-AF9), read-out: IC50 proliferation
Experimental: as §1

MOLM-13 (MLL-AF9) cells = test: Cell proliferation (alamarBlue) MOLM-13; conditions: Homo sapiens, MOLM-13, MOLM-13 (MLL-AF9), read-out: IC50 proliferation
Experimental: as §1

MV4-11 (MLL-AF4) cells = test: Cell proliferation (alamarBlue) MV4-11; conditions: Homo sapiens, MV4-11, MV4-11 (MLL-AF4), read-out: IC50 proliferation
Experimental: as §1

SEM (MLL-AF4) cells = test: Cell proliferation (alamarBlue) SEM; conditions: SEM (MLL-AF4), read-out: IC50 proliferation
Experimental: as §1

RS4;11 (MLL-AF4) cells = test: Cell proliferation (alamarBlue) RS4;11; conditions: Homo sapiens, RS4-11, RS4;11 (MLL-AF4), read-out: IC50 proliferation
Experimental: as §1

OCI-AML-5 (MLL-WT) cells = test: Cell proliferation (alamarBlue) OCI-AML-5; conditions: Homo sapiens, OCI-AML-5, OCI-AML-5 (MLL-WT), read-out: IC50 proliferation
Experimental: as §1

HL-60 cells = test: CD11b protein expression by flow cytometry, HL-60; conditions: non-fused HL-60 cell line, 4 and 7 days of treatment
Experimental: as §2

OCI-AML-3 (MLL-WT) cells = test: Cell proliferation (alamarBlue) OCI-AML-3; conditions: Homo sapiens, OCI-AML-3, OCI-AML-3 (MLL-WT), read-out: IC50 proliferation
Experimental: as §1

CC(C)N(C[C@H]1O[C@@H](n2cnc3c(N)ncnc32)[C@H](O)[C@@H]1O)[C@H]1C[C@@H](CCc2nc3cc(C(C)(C)C)ccc3[nH]2)C1 [EPZ-5676]
IC50 [1]: < 1000 nM | IC50 (MOLM-14 (MLL-AF9) cells; D1): > 10000 nM | IC50 (MOLM-14 (MLL-AF9) cells; D4): 140 nM | IC50 (MOLM-14 (MLL-AF9) cells; D7): 120 nM | CD11b protein level [2]: increased CD11b protein level in a dose and time-dependent manner | anti-proliferation effect in non-fused HL-60 (HL-60 (MLL-WT) cells; HL-60, 4 days of treatment (Fig. 1a)): no significant effects | IC50 (HL-60 (MLL-WT) cells; 24 h, 1 day of treatment (D1)): > 10 µM | IC50 (HL-60 (MLL-WT) cells; 96 h, 4 days of treatment (D4)): > 10 µM | IC50 (HL-60 (MLL-WT) cells; 168 h, 7 days of treatment (D7)): > 10 µM | IC50 ([3]; D1): > 10 µM | IC50 ([3]; D4): > 10 µM | IC50 ([3]; D7): > 10 µM | IC50 (Jurkat (MLL-WT) cells; D1, read-out: IC50 proliferation): > 10 µM | IC50 (Jurkat (MLL-WT) cells; D4, read-out: IC50 proliferation): > 10 µM | IC50 (Jurkat (MLL-WT) cells; D7, read-out: IC50 proliferation): > 10 µM | IC50 (ML-2 (MLL-AF6) cells; D1): > 10 µM | IC50 (ML-2 (MLL-AF6) cells; D4): > 10 µM | IC50 (ML-2 (MLL-AF6) cells; D7): > 10 µM | IC50 (KOPN-8 (MLL-ENL) cells; D1): > 10 µM | IC50 (KOPN-8 (MLL-ENL) cells; D4): > 10 µM | IC50 (KOPN-8 (MLL-ENL) cells; D7): > 10 µM | IC50 (EOL-1 (MLL-TD) cells; D1): > 10 µM | IC50 (EOL-1 (MLL-TD) cells; D4): > 10 µM | IC50 (EOL-1 (MLL-TD) cells; D7): 0.12 µM | cell cycle effect [4]: decrease of cells in S and G2/M phase with increasing concentrations | IC50 (NOMO-1 (MLL-AF9) cells; D1): > 10 µM | IC50 (NOMO-1 (MLL-AF9) cells; D4): > 10 µM | IC50 (NOMO-1 (MLL-AF9) cells; D7): 0.15 µM | IC50 (MOLM-13 (MLL-AF9) cells; D1): > 10 µM | IC50 (MOLM-13 (MLL-AF9) cells; D4): > 10 µM | IC50 (MOLM-13 (MLL-AF9) cells; D7): 6.57 µM | IC50 (MV4-11 (MLL-AF4) cells; D1): > 10000 nM | IC50 (MV4-11 (MLL-AF4) cells; D4): 250 nM | IC50 (MV4-11 (MLL-AF4) cells; D7): 280 nM | IC50 (SEM (MLL-AF4) cells; D1): > 10 µM | IC50 (SEM (MLL-AF4) cells; D4): > 10 µM | IC50 (SEM (MLL-AF4) cells; D7): > 10 µM | IC50 (RS4;11 (MLL-AF4) cells; D1): > 10 µM | IC50 (RS4;11 (MLL-AF4) cells; D4): > 10 µM | IC50 (RS4;11 (MLL-AF4) cells; D7): > 10 µM | IC50 (OCI-AML-5 (MLL-WT) cells; D1): > 10 µM | IC50 (OCI-AML-5 (MLL-WT) cells; D4): > 10 µM | IC50 (OCI-AML-5 (MLL-WT) cells; D7): > 10 µM | CD11b level (HL-60 cells): did not increase CD11b level | IC50 (OCI-AML-3 (MLL-WT) cells; D1): > 10 µM | IC50 (OCI-AML-3 (MLL-WT) cells; D4): > 10 µM | IC50 (OCI-AML-3 (MLL-WT) cells; D7): > 10 µM
